Results taken from patent publication US6723754B2, “Use of COMT inhibitors as analgesics” (Orion Corporation, priority 2000, dated 2004).
Marks after values point to notes of the source that are not given here.

Assays:
[1] = tested on: acetic acid induced writhing in mice; assay: Acetic acid-induced writhing in mice; format: in vivo; details: mouse
Experimental: (§1) There are several methods for testing analgesic drugs experimentally. […] The inflammation is induced in the rat hind paw by yeast suspension and the pain threshold of the paw is measured. […] In these tests, both the NSAIDs and opioid analgesics are known to be effective. The hot plate test in mice is a test in which only opioid analgesics are effective.
Acetic acid induced writhing test is a widely used screening method for analgesic agents. […] Writing movements were elicited in mice by an i.p. injection of 1% acetic acid in the volume of 0.1 ml/10 g. The mice were placed in individual glass containers for observation. The number of writhes was counted during a period of 20 minutes and recorded every 5 minutes. The test compounds were given 5-60 minutes before the acetic acid.

inflamed paw in rats = assay: Modified Randall-Selitto test (yeast-inflamed hind paw pain threshold); format: in vivo; details: rat, one hour before measurement, % of control value
Experimental: as §1
The effect on inflammatory pain was measured using a modified Randall-Selitto test. 0.1 ml of 20% Brewer's yeast suspension was injected subplantary to the right hind paw of rats under ether anaesthesia to elicit inflammation in the paw. After 3 hours the degree of hyperalgesia was determined with an analgesy-meter by applying a force of increasing magnitude to the inflamed paw with a cone-shaped teflon pusher. The force at which the animals begins to struggle was assumed to represent the pain threshold. The drugs were administered orally 5 ml/kg one hour before the measurement. The increase in pain threshold was calculated as a percentage of the control value.

[2] = tested on: formation of prostaglandins; details: Aho and Linden, Scand.J.Gastroenterol. 1992; cited from earlier work

Row | SMILES | Inhibition of writhing (%) ([1]; 1 mg/kg i.p.) | Inhibition of writhing (%) ([1]; 2 mg/kg p.o.) | Inhibition of writhing (%) ([1]; 6 mg/kg p.o.) | Increase in pain threshold (%) (inflamed paw in rats; 1 mg/kg p.o.) | Inhibition of writhing (%) ([1]; 50 mg/kg p.o.) | Inhibition of writhing (%) ([1]; 100 mg/kg p.o.) | Increase in pain threshold (%) (inflamed paw in rats; 3 mg/kg p.o.) | Increase in pain threshold (%) (inflamed paw in rats; 10 mg/kg p.o.) | Increase in pain threshold (%) (inflamed paw in rats; 30 mg/kg p.o.) | Inhibition of writhing (%) ([1]; 3 mg/kg i.v.) | Inhibition of writhing (%) ([1]; 10 mg/kg i.v.) | Inhibition of writhing (%) ([1]; 30 mg/kg i.p.) | Inhibition of writhing (%) ([1]; 100 mg/kg i.p.) | Increase in pain threshold (%) (inflamed paw in rats; 0.5 mg/kg p.o.) | Effect on formation of prostaglandins [2]
1 | COc1ccc2c(c1)c(CC(=O)O)c(C)n2C(=O)c1ccc(Cl)cc1 [Indomethacin, indomethacin] | 38* % | 18* % | 42** % | 54* % | – | – | – | – | – | – | – | – | – | – | –
2 | CC(=O)c1cc(O)c(O)c([N+](=O)[O-])c1 [3′,4′-dihydroxy-5′-nitroacetophenone] | – | – | – | – | 28** % | 43** % | 45% | 68** % | 62* % | – | – | – | – | – | –
3 | CCN(CC)C(=O)/C(C#N)=C/c1cc(O)c(O)c([N+](=O)[O-])c1 [Entacapone, (E)-2-cyano-3-(3,4-dihydroxy-5-nitrophenyl)-N,N-diethyl-2-propenamide] | – | – | – | – | – | 24% | – | 62% | 64% | 14% | 38* % | – | – | – | –
4 | CC(=O)C(=Cc1cc(O)c(O)c([N+](=O)[O-])c1)C(C)=O [Nitecapone, 3-(3,4-dihydroxy-5-nitrophenyl)methylene-2,4-pentanedione] | – | – | – | 58* % | 15* % | 21** % | 46* % | 45* % | – | – | – | 37* % | 76* % | 13% | stimulate the formation of prostaglandins
5 | O=[N+]([O-])c1cc(O)c(O)c([N+](=O)[O-])c1 [3,5-dinitrocatechol] | – | – | – | 49* % | 36** % | 22** % | 49* % | – | 65* % | – | – | – | – | – | –
